In data set [1] the test system is S. pyogenes. The data set is described as follows: Minimal inhibitory concentration (MIC), S. pyogenes. It counts as cell-based. The settings on record: Streptococcus pyogenes; 0.1 M NaH2PO4, pH 7.0.
Data set [2] relates to S. aureus. The data set is described as follows: microbe, parasite or virus in culture. It counts as cell-based. As to conditions: Staphylococcus aureus, pH 7, read-out: Minimal inhibitory concentration (MIC), S. aureus.
Data set [3] concerns S. typhimirum. The data set is described as follows: Minimal inhibitory concentration (MIC), S. typhimirum. The data set is classed as cell-based. The settings on record: 0.1 M NaH2PO4, pH 7.0.
The subject of data set [4] is B. subtilis. The data set is described as follows: Minimal inhibitory concentration (MIC), B. subtilis. As to conditions: Bacillus subtilis; 0.1 M NaH2PO4, pH 7.0. It counts as cell-based.
Data set [5] relates to P. aeruginosa. Description: Minimal inhibitory concentration (MIC), P. aeruginosa. The data set is classed as cell-based. The settings on record: Pseudomonas aeruginosa; 0.1 M NaH2PO4, pH 7.0.
The test system of data set [6] is rat. As to conditions: cited from earlier work.
The test system of data set [7] is mouse. As to conditions: cited from earlier work.
The subject of data set [8] is mouse. As to conditions: cited from earlier work. The source holds these as a separate data set.
Data set [9] is described as follows: in vivo. As to conditions: mouse, iv.
Data set [10] relates to MCR-ICR White Swiss Male Mice. As to conditions: mouse; for Mortality 24 hrs. / Mortality 7 days: in vivo.
The subject of data set [11] is White Male Mice MCR-ICR. The settings on record: oral; for Mortality 24 hrs. / Mortality 7 days: deaths of 10 animals per dose.
Data set [12] can be described thus: in vivo. The settings on record: mouse, po.
Data set [13] in a line: Saturated solubility (footnote of MIC table). The settings on record: 0.1 M NaH2PO4, pH 7.0; footnote b; read-out: Approximately the saturated solubility. It counts as physicochemical. An excerpt: ^b Approximately the saturated solubility.

“Also recorded” adds a separate entry of the source. Like-named read-outs stand apart in the source and are kept apart here.

The text below walks through data of patent US4204065A, “Soft quaternary surface active agents and method of using same” (Interx Research Corporation, priority 1978, dated 1980).

For `CCCCCCCCCCCC(=O)OC[n+]1ccn(C)c1` [Compound 6], the MIC in data set [1] stood at 2 µg/mL; in data set [2], 4.1 µg/mL; in data set [3] it was 65.3 µg/mL; in data set [4] it was 16.3 µg/mL; in data set [5], 261 µg/mL.
As for `CCCCCCCCCCCC(=O)OC[n+]1ccccc1` [Compound 3, n-Dodecanoyloxymethylpyridinium chloride], the MIC is 71.5 µg/mL in [1]; 8.9 µg/mL in [2]; 35.8 µg/mL in [3]; 143 µg/mL in data set [4]; less than 2.2 µg/mL in data set [5].
On to `CCCCCCCCCCCCCCCC[n+]1ccccc1` [Compound 1, cetylpyridinium chloride], for which, in data set [6], the “LD50 IV” value is 30 mg/kg. In addition, the LD50 oral in [7] is 108 mg/kg. In data set [8], the “LD50 IP” value is given as 10 mg/kg.
In the case of `CCCCCCCC(=O)OC[n+]1ccccc1` [Compound 2, n-Octanoyloxymethylpyridinium chloride], the MIC in [1] amounted to 529 µg/mL; in data set [2], 529 µg/mL; in data set [3] it was 1060 µg/mL; in [4] it was 529 µg/mL; in data set [5], 1060 µg/mL.
In the case of `CCCCCCCCCCCCCC(=O)OC[n+]1ccn(C)c1` [Compound 7], the MIC was more than 2.2 µg/mL in [1]; less than 2.2 µg/mL in [2]; 69.7 µg/mL in [3]; 4.4 µg/mL in data set [4]; more than 1120 µg/mL in data set [5].
With `CCCCCCCCCCCC(=O)OC[n+]1ccn(C)c1` [IRx-1229], the LD50 (in general, the dose at which mortality reaches 50%) at 24 h is 100 to 133 mg/kg in [9] and 4300 mg/kg in [12]. The “Symptoms: time of death” value in [10] (IV) was “Death either occurred immediately after injection or several day later, never between 5 minutes and 24 hours after injection”. In data set [10] (IV, death immediately following injection), the “Symptoms: cause and signs of immediate death” value is “circulatory collapse because of too large an injection or precipitation of the compound in the bloodstream; also recorded: death was preceded by convulsions”. Besides, the “Mortality 24 hrs.” value is 1/3 in data set [10] (133 mg/kg); 0/5 in data set [10] (iv, 35.09 mg/kg); 0/5 in [10] (iv, 42.5 mg/kg); 1/2 in data set [10] (iv, 81.25 mg/kg); 2/4 in data set [10] (iv, 87.73 mg/kg); 0/8 in data set [10] (iv, 102.47 mg/kg). Also, the “Mortality 24 hrs.” value in [10] (iv, 199.5 mg/kg) is on record as 1/1; in data set [11] (1.68 g/kg), 0; in [11] (3.35 g/kg) it was 2; in data set [11] (5.00 g/kg) it was 7. Further, the “Mortality 7 days” value is 1/3 in data set [10] (133 mg/kg); 0/5 in data set [10] (iv, 35.09 mg/kg); 0/5 in [10] (iv, 42.5 mg/kg); 1/2 in [10] (iv, 81.25 mg/kg); 2/4 in data set [10] (iv, 87.73 mg/kg); 1/8 in [10] (iv, 102.47 mg/kg). Further, the “Mortality 7 days” value in [10] (iv, 199.5 mg/kg) is listed as 1/1; in data set [11] (1.68 g/kg) it was 1; in data set [11] (3.35 g/kg) it was 3; in data set [11] (5.00 g/kg), 7. For the same molecule, the “Deaths per day, Day 1” value in data set [11] (1.68 g/kg) came to 0; in data set [11] (3.35 g/kg) it was 2; in data set [11] (5.00 g/kg) it was 7. The “Deaths per day, Day 2” value in data set [11] (1.68 g/kg) is on record as 1. In addition, the “Deaths per day, Day 3” value in data set [11] (3.35 g/kg) was found to be 1. Besides, the LD50 at 168 h in data set [12] is 4110 mg/kg.
Regarding `CCCCCCCCCCCCCC(=O)OC[n+]1ccccc1` [Compound 4, n-Tetradecanoyloxymethylpyridinium chloride], the MIC in data set [1] was 4.2 µg/mL; in data set [2], 8.1 µg/mL; in data set [3], 133 µg/mL; in data set [4], 8.3 µg/mL; in data set [5], more than 1060 µg/mL.
Regarding `CCCCCCCCCCCCCCCC(=O)OC[n+]1ccccc1` [Compound 5, n-Hexadecanoyloxymethylpyridinium chloride], the MIC in data set [1] is 268 µg/mL; in data set [2] it was 16.7 µg/mL; in [3], 1070 µg/mL; in data set [4], 1070 µg/mL; in [5], 1070 µg/mL.
On to `CCCCCCCCCCCCCCCC(=O)OC[n+]1ccn(C)c1` [Compound 8], for which the solubility – broadly, the concentration that dissolves in the medium under given conditions – in [13] is approximately 42.4 µg/mL. For the same molecule, the MIC in [1] was more than 42.4 µg/mL; in data set [2] it was 1.3 µg/mL; in data set [3] it was more than 42.4 µg/mL; in data set [4], more than 42.4 µg/mL; in data set [5] it was more than 42.4 µg/mL.
